Consider seven compounds from article PMC9186362, “Design and biological evaluation of substituted 5,7-dihydro-6H-indolo[2,3-c]quinolin-6-one as novel selective Haspin inhibitors” (Journal of Enzyme Inhibition and Medicinal Chemistry, 2022).

One data set concerns U-2 OS cell line. Put plainly: Cell viability MTS assay, dose-response. It counts as cell-based. The following applies: Homo sapiens, U2OS; 48 h, MTS assay in triplicate, doses up to 50 µM. The protocol:
(§1) HCT116 cells were cultured in McCoy’s medium. SH-SY5Y, MDA-MB231 and U-2 OS cells were cultured in Dulbecco's modified Eagle's medium (DMEM) and hTERT RPE-1 cells in DMEM:F12 medium. All media were supplemented with 10% foetal calf serum and cells were cultured at 37 °C in a 5% CO2 humidified atmosphere.
(§2) Cell viability was then assessed using the CellTiter96 AQueous cell proliferation assay from Promega according to the manufacturer’s instructions. Each experiment was done in triplicate and EC50 were determined from the dose-response curves according to the signal given by the control (0.1% DMSO) set at 100% viability using Prism GraphPad software.

Another data set relates to RPE1 cell line. Put plainly: Cell viability MTS assay, dose-response. It counts as cell-based. Particulars: Homo sapiens, RPE-1; 48 h, MTS assay in triplicate, doses up to 50 µM. The protocol: as §1, §2
The target in the next data set is MmCLK1 (Mus musculus, UniProt P22518). Put plainly: ADP-Glo kinase assay. Particulars: for remaining activity at 1 µM: mean n = 2, % of maximum activity of DMSO control, read-out: % Residual activity at 1 μM CLK1; for Selectivity index CLK1/Haspin: IC50 CLK1/IC50 Haspin; for IC50: dose-response curve, each point in duplicate, read-out: Kinase inhibition (IC50) CLK1. It counts as biochemical, Mus musculus (Mm). The protocol: (§3) Kinase activities were determined using the ADP-Glo methodology (ADP-Glo Kinase Assay; Promega) according to the assay described by Nguyen et al.[32] except for MmCLK1. The later was assayed in the following buffer: 10 mM MgCl2, 1 mM EGTA, 1 mM DTT, 25 mM Tris-HCl pH 7.5, 50 µg/ml heparin, 0.15 mg/ml BSA, with 0.027 µg/µl of the following peptide: GRSRSRSRSRSR as substrate.
A general note: ADP-Glo turns the ADP formed in a reaction into a luminescent signal.

The target of another data set is HsCdk9/Cyc E (Homo sapiens, UniProt P50750). Put plainly: ADP-Glo kinase assay. Particulars: mean n = 2, % of maximum activity of DMSO control, read-out: % Residual activity at 1 μM CDK9. It counts as biochemical, Homo sapiens (Hs). The protocol:
as §3

A further data set deals with HsGSK3β (Homo sapiens, UniProt P49841). Put plainly: ADP-Glo kinase assay. It counts as biochemical, Homo sapiens (Hs). Particulars: mean n = 2, % of maximum activity of DMSO control, read-out: % Residual activity at 1 μM GSK3β. The protocol: as §3
The next data set has as its target HsCdk5/p25 (Homo sapiens, UniProt Q00535). Put plainly: ADP-Glo kinase assay. It counts as biochemical, Homo sapiens (Hs). Particulars: mean n = 2, % of maximum activity of DMSO control, read-out: % Residual activity at 1 μM CDK5. The protocol: as §3
The target of the next data set is HsPIM1 (Homo sapiens, UniProt P11309). Put plainly: ADP-Glo kinase assay. It counts as biochemical, Homo sapiens (Hs). Particulars: mean n = 2, % of maximum activity of DMSO control, read-out: % Residual activity at 1 μM PIM1. The protocol:
as §3

The next data set has as its target T1, HsHaspin (Homo sapiens, UniProt Q8TF76).
T1 sequence (Q8TF76 1-798): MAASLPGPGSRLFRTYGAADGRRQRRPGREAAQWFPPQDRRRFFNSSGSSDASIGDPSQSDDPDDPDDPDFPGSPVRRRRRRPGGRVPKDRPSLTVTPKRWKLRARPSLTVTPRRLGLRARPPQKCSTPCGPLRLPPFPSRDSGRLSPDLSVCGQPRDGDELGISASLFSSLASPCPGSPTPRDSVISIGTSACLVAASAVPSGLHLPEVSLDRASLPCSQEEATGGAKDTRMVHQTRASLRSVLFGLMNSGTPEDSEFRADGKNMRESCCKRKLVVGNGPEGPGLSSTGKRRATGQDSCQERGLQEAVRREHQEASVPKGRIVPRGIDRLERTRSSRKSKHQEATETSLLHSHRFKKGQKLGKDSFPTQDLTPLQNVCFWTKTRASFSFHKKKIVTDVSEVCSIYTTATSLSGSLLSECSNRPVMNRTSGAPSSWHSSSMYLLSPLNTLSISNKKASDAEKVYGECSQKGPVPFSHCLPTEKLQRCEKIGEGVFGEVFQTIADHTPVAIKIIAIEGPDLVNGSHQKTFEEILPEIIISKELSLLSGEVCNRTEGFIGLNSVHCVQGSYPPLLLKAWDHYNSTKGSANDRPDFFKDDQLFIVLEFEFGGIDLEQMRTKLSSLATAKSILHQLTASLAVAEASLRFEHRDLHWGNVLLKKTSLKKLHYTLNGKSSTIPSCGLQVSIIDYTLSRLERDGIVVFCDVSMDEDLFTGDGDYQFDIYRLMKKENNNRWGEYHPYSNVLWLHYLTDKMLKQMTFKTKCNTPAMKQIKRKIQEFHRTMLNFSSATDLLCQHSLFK
Put plainly: ADP-Glo kinase assay. Particulars: for remaining activity at 1 µM: mean n = 2, % of maximum activity of DMSO control, read-out: % Residual activity at 1 μM Haspin; for IC50: dose-response curve, each point in duplicate, read-out: Kinase inhibition (IC50) Haspin. It counts as biochemical, Homo sapiens (Hs). The protocol: as §3

Another data set deals with HsCdk2/Cyc A (Homo sapiens, UniProt P24941). Put plainly: ADP-Glo kinase assay. It counts as biochemical, Homo sapiens (Hs). Particulars: mean n = 2, % of maximum activity of DMSO control, read-out: % Residual activity at 1 μM CDK2. The protocol:
as §3

For data set [1], the system named is U-2 OS, HCT116, MDA-MB231, SH-SY5Y and RPE-1 cell lines. Put plainly: Cell viability primary screen at 25 μM. Particulars: 48 h. It counts as cell-based, human. The protocol:
as §1, §2

A further data set addresses RnDYRK1A (Rattus norvegicus, UniProt Q63470). Put plainly: ADP-Glo kinase assay. It counts as biochemical, Rattus norvegicus (Rn). The following applies: for Selectivity index DYRK/Haspin: IC50 DYRK1A/IC50 Haspin; for IC50: dose-response curve, each point in duplicate, read-out: Kinase inhibition (IC50) DYRK1A; for remaining activity: mean n = 2, % of maximum activity of DMSO control, read-out: % Residual activity at 1 μM DYRK1A. The protocol:
as §3

MmCLK1, sequence (P22518 whole entry): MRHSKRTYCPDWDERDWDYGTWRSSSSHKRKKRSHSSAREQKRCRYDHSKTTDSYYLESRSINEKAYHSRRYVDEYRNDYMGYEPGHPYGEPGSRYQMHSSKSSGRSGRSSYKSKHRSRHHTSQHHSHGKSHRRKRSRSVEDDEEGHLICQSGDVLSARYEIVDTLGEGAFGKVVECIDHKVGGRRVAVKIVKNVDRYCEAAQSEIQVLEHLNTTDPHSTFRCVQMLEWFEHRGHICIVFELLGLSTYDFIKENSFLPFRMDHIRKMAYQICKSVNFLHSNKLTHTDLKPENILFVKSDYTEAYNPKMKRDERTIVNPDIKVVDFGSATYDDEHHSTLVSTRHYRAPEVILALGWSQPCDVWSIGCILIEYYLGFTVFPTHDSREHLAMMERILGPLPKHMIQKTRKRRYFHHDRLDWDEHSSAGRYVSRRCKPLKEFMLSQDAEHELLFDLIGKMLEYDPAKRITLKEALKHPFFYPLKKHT
HsCdk9/Cyc E, sequence (P50750 whole entry): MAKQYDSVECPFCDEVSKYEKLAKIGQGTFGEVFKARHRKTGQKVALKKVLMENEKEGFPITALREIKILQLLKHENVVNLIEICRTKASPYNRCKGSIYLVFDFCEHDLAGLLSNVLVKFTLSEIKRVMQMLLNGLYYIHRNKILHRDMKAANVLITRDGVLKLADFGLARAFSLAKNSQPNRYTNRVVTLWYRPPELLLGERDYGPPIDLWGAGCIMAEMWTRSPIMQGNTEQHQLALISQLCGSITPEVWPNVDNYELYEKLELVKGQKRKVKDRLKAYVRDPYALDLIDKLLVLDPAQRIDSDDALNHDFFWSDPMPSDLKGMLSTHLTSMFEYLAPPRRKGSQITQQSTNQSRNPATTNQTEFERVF
HsCdk9/Cyc E, sequence (O60563 whole entry partner): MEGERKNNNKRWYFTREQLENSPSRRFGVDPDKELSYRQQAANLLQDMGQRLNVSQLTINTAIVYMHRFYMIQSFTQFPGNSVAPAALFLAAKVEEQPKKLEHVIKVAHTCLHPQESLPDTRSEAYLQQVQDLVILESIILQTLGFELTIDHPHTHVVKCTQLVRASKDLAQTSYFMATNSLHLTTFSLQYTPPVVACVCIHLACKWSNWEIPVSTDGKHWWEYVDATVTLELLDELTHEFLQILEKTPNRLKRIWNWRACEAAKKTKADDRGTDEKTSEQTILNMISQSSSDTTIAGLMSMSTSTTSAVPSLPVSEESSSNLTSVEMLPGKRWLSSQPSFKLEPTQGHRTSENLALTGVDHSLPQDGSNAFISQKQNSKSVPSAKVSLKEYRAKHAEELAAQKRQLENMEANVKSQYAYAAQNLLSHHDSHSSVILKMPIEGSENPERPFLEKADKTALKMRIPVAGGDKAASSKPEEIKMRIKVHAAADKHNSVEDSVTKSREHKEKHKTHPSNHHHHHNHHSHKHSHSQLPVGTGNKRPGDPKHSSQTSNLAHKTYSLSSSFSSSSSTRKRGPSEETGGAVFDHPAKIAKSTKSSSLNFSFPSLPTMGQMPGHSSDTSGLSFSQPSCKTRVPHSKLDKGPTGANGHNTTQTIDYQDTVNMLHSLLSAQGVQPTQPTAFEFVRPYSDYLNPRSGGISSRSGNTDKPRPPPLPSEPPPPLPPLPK
HsCdk5/p25, sequence (Q00535 whole entry): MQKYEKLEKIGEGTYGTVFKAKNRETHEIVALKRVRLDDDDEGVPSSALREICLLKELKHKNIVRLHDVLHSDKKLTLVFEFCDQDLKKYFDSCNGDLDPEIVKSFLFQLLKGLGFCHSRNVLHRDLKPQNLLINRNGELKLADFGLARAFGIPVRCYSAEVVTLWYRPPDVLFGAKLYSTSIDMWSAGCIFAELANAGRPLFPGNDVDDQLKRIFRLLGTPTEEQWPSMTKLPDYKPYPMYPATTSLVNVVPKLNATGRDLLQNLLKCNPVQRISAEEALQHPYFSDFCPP
HsCdk5/p25, sequence (Q15078 99-307 partner limits assumed): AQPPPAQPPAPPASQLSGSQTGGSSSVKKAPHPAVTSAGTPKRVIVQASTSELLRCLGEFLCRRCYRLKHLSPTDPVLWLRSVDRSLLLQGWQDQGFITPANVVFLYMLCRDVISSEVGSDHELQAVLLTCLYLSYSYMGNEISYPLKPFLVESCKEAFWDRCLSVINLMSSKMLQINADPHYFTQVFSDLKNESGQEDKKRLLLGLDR
HsGSK3β, sequence (P49841 whole entry): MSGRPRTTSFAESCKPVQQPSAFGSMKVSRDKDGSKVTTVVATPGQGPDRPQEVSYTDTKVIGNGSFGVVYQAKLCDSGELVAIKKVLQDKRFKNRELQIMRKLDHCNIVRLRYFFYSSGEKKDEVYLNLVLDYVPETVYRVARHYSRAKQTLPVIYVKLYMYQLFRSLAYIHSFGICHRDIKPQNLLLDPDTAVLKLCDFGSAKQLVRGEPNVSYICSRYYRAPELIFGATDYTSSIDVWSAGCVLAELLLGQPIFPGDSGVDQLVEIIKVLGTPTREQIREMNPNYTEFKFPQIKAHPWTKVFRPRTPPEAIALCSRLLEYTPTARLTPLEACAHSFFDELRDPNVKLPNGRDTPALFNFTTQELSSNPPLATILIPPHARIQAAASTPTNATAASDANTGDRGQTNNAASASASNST
HsPIM1, sequence (P11309 whole entry): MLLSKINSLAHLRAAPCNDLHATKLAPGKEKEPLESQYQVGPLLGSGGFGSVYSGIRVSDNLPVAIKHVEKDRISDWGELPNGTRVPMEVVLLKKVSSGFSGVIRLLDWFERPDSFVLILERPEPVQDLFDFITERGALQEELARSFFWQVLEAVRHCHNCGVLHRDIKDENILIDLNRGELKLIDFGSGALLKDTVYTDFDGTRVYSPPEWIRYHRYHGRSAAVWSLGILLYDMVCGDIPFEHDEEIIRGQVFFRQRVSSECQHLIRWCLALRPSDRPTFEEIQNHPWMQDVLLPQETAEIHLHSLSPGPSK

`COc1ccc2[nH]c(=O)c3[nH]c4ccccc4c3c2c1` [Compound 46, 2-Methoxy-5,7-dihydro-6H-indolo[2,3-c]quinolin-6-one]: the melting point (as a rule, the temperature, or range, at which the solid turns liquid) was greater than 250 °C. Besides, in the data set on U-2 OS cell line, the EC50 (in general, the concentration that produces a half-maximal response) is greater than 25000 nM. The compound further registered an EC50 in the data set on RPE1 cell line greater than 25000 nM. Besides, on MmCLK1, the remaining activity at 1 µM was found to be 13%, the “Selectivity index CLK1/Haspin” value is reported as 7 and the concentration for half-maximal inhibition (IC50) (commonly the concentration that gives 50% inhibition) came out at 51 nM. In addition, on HsCdk9/Cyc E, the remaining activity at 1 µM was determined as 62%. Further, the remaining activity at 1 µM at HsGSK3β was 86%. For the same compound, at HsCdk5/p25, the remaining activity at 1 µM came to 78%. Further, on HsPIM1, the remaining activity at 1 µM was 32%. For the same compound, at HsHaspin, the remaining activity at 1 µM is 6% and the IC50 was 7 nM. At HsCdk2/Cyc A, the remaining activity at 1 µM was 80%. Moreover, the “Effect on cell viability, primary screen” value in data set [1] (all tested cell lines) is on record as “little to no effect”. On RnDYRK1A, the “Selectivity index DYRK/Haspin” value was 10, the IC50 is 68 nM and the remaining activity is 18%.
`O=c1[nH]c2ccc(O)cc2c2c1[nH]c1ccccc12` [Compound 48, 2-Hydroxy-5,7-dihydro-6H-indolo[2,3-c]quinolin-6-one] had a melting point of 235 to 238 °C. This compound also gave an EC50 in the data set on U-2 OS cell line of 7000 nM. Moreover, the response with RPE1 cell line was half-maximal at 7300 nM (EC50). Besides, on MmCLK1, the remaining activity at 1 µM amounted to 4%, the “Selectivity index CLK1/Haspin” value was 3 and the half-maximal inhibitory concentration (IC50) was 17 nM. At HsCdk9/Cyc E, the remaining activity at 1 µM stood at 49%. Further, the remaining activity at 1 µM at HsGSK3β was found to be 100%. Besides, on HsCdk5/p25, the remaining activity at 1 µM worked out at 87%. For the same compound, the remaining activity at 1 µM at HsPIM1 was found to be 63%. In addition, at HsHaspin, the remaining activity at 1 µM was determined as 1% and the IC50 was found to be 6 nM. Moreover, the remaining activity at 1 µM on HsCdk2/Cyc A worked out at 84%. Further, the “Reduction of cell viability compared to the DMSO control” value in data set [1] is no less than 75%. Moreover, on RnDYRK1A, the “Selectivity index DYRK/Haspin” value is listed as 3, the IC50 amounted to 19 nM and the remaining activity was determined as 12%.
`COc1ccc2c(c1)[nH]c1c(=O)[nH]c3ccccc3c12` [Compound 58, 9-Methoxy-5,7-dihydro-6H-indolo[2,3-c]quinolin-6-one] came in with a melting point of 235 to 237 °C. Moreover, the remaining activity at 1 µM on MmCLK1 turned out to be 49%. Further, the remaining activity at 1 µM at HsCdk9/Cyc E is 55%. Also, the remaining activity at 1 µM on HsGSK3β is 51%. For the same compound, on HsCdk5/p25, the remaining activity at 1 µM was found to be 55%. For the same compound, the remaining activity at 1 µM at HsPIM1 came out at 48%. At HsHaspin, the remaining activity at 1 µM was determined as 59%. Also, the remaining activity at 1 µM at HsCdk2/Cyc A came to 62%. In addition, the remaining activity on RnDYRK1A worked out at 55%.
`COc1ccc2c(c1)[nH]c1c(=O)[nH]c3ccc(OC)cc3c12` [Compound 59, 2,9-Dimethoxy-5,7-dihydro-6H-indolo[2,3-c]quinolin-6-one] returned a melting point of 235 to 237 °C. In addition, on MmCLK1, the remaining activity at 1 µM is 12%, the “Selectivity index CLK1/Haspin” value was found to be 3 and the IC50 worked out at 94 nM. Moreover, the remaining activity at 1 µM at HsCdk9/Cyc E was found to be 41%. In addition, the remaining activity at 1 µM on HsGSK3β stood at 41%. Moreover, on HsCdk5/p25, the remaining activity at 1 µM is 51%. Further, the remaining activity at 1 µM at HsPIM1 was found to be 34%. Further, on HsHaspin, the remaining activity at 1 µM is 13% and the IC50 was determined as 30 nM. The remaining activity at 1 µM at HsCdk2/Cyc A was 74%. In addition, at RnDYRK1A, the “Selectivity index DYRK/Haspin” value was determined as 2, the 50% inhibitory concentration (IC50) amounted to 73 nM and the remaining activity amounted to 21%.
Consider `COc1ccc2[nH]c(=O)c3[nH]c4ccc(F)cc4c3c2c1` [Compound 60, 10-Fluoro-2-methoxy-5,7-dihydro-6H-indolo[2,3-c]quinolin-6-one], for which the melting point was in the range of 135 to 136 °C. For the same compound, at MmCLK1, the remaining activity at 1 µM worked out at 31%, the “Selectivity index CLK1/Haspin” value was found to be 6 and the IC50 was 122 nM. Besides, at HsCdk9/Cyc E, the remaining activity at 1 µM was determined as 100%. Further, on HsGSK3β, the remaining activity at 1 µM was 100%. Also, the remaining activity at 1 µM on HsCdk5/p25 was 100%. Also, at HsPIM1, the remaining activity at 1 µM worked out at 100%. For the same compound, at HsHaspin, the remaining activity at 1 µM was determined as 9% and the IC50 worked out at 19 nM. Moreover, on HsCdk2/Cyc A, the remaining activity at 1 µM came out at 97%. Also, on RnDYRK1A, the “Selectivity index DYRK/Haspin” value was determined as 8, the half-maximal inhibitory concentration (IC50) came to 143 nM and the remaining activity came out at 44%.
In the case of `COc1ccc2c(c1)c1c3cc(O)ccc3[nH]c(=O)c1n2C` [Compound 62, 2-Hydroxy-10-methoxy-7-methyl-5,7-dihydro-6H-indolo[2,3-c]quinolin-6-one], the melting point is greater than 250 °C. At MmCLK1, the remaining activity at 1 µM amounted to 0%, the “Selectivity index CLK1/Haspin” value turned out to be 7 and the IC50 is 124 nM. The remaining activity at 1 µM at HsCdk9/Cyc E was determined as 6%. Also, the remaining activity at 1 µM on HsGSK3β was found to be 31%. Further, on HsCdk5/p25, the remaining activity at 1 µM was 22%. Further, at HsPIM1, the remaining activity at 1 µM is 75%. At HsHaspin, the remaining activity at 1 µM came to 0% and the concentration for half-maximal inhibition (IC50) was found to be 18 nM. The remaining activity at 1 µM at HsCdk2/Cyc A came out at 31%. Besides, at RnDYRK1A, the “Selectivity index DYRK/Haspin” value is listed as 7, the IC50 turned out to be 131 nM and the remaining activity amounted to 2%.
Consider `COc1ccc2c(c1)c1c3cc(N(C)C)ccc3[nH]c(=O)c1n2C` [Compound 64, 2-(Dimethylamino)-10-methoxy-7-methyl-5,7-dihydro-6H-indolo[2,3-c]quinolin-6-one], for which the melting point was in the range of 231 to 234 °C. Also, the remaining activity at 1 µM at MmCLK1 turned out to be 11%. Besides, the remaining activity at 1 µM at HsCdk9/Cyc E came out at 59%. The remaining activity at 1 µM on HsGSK3β was 81%. Besides, the remaining activity at 1 µM at HsCdk5/p25 is 100%. Moreover, the remaining activity at 1 µM at HsPIM1 is 82%. In addition, the remaining activity at 1 µM on HsHaspin stood at 39%. Moreover, the remaining activity at 1 µM at HsCdk2/Cyc A stood at 100%. The remaining activity at RnDYRK1A was found to be 19%.
